Data reported in patent US20170112857A1, “Extended Release Aspirin” (New Haven Pharmaceuticals, Inc., priority 2015, published 2017).

What was measured:
Assay type in all cases: in vivo, human
[1] = test system: serum 11-dehydro-thromboxane (TxB2) production; experiment: Single dose inhibition of serum TxB2 production (enzyme immunoassay); settings: highest doses: ER ASA 81 mg, 162.5 mg (Durlaza), 325 mg; IR ASA 40 mg and 81 mg
Protocol: Healthy adults were randomized to receive single doses of extended release ASA (“ER ASA”) at a dosage of 20 mg, 40 mg, 81 mg, 162.5 mg ER ASA (Durlaza®; New Haven Pharmaceuticals, Inc., North Haven, Conn.), or 325 mg, or immediate release ASA (“IR ASA”; aspirin powder USP; Letco Medical, Decatur, Ala.) at a dosage of 5 mg, 10 mg, 20 mg, 40 mg or 81 mg. […] For pharmacodynamic assessments, serum 11-dehydro-thromboxane (“TxB2”, a stable metabolite of thromboxane A2) levels were assessed using a validated enzyme immunoassay kit in serial blood samples collected 1 hour before dosing and at 0.5, 1, 2, 4, 8, 16, and 24 hours after drug administration.

platelet aggregation [2] = experiment: Multiplate platelet aggregation; settings: Visit 2 trough
Protocol: The main study consisted of a run-in phase where subjects were administered 81 mg, everyday (“QD”), of immediate release acetylsalicylic acid (“IR ASA”) for 7-28 days. […] During Visits 2 and 5 subjects were subjected to the following tests: (1) platelet aggregation measurements (a) AA induced, (b) collagen induced, and (c) Multiplate®; […] During Visits 3 and 6 subjects were subjected to the following tests: (1) platelet aggregation measurements (a) AA induced, (b) collagen induced, and (c) Multiplate®; […] For this study the trough level data are from the following timepoints: (1) for 81 mg—the data at Visit 2; […]

platelet aggregation [3] = experiment: VerifyNow Aspirin Assay (ARU), turbidimetric optical detection in whole blood; settings: Visit 2 trough
Protocol: The VerifyNow® is a turbidimetric based optical detection system that measures platelet aggregation in the whole blood and reports the optical signals as aspirin reaction units (“ARU”). The percent change in ARU over 24 hours (“ARU24”) is calculated from 1 hour post dose using the following formulas: ARU12(%)=(([…]16(%)=(([…]1)*100 and ARU24(%)=(([…]1)*100. […] For this study the trough level data are from the following timepoints: (1) for 81 mg-the data at Visit 2; […]

endothelial function = experiment: Reactive hyperemia index (ENDOPAT pulsatile arterial tonometry); settings: for RHI < 1.67 (%): share of subjects
Protocol: Endothelial function was assessed using the ENDOPAT system ([…] Medical, Israel), a pulsatile arterial tonometry-based diagnostic device, at Visit 2, Visit 3, Visit 5, and Visit 6 predose. The reactive hyperemia index (“RHI”), a measure of endothelial function, and the augmentation index (“AI”), a measure of arterial stiffness, were determined. Endothelial dysfunction is defined as RHI<1.67. Normal arterial stiffness is defined as an AI -30% to -10%, increased arterial stiffness as an AI>-10% to 10%, and abnormal arterial stiffness as an AI>10%. The RHI measures vessel pliability which is a surrogate for nitric oxide production. The production of nitric oxide inhibits platelet aggregation. Thus, determining nitric oxide production following Durlaza® dosing is important to understanding its affect on platelet inhibition.

[4] = test system: 2, 3-dinor-6-keto-PGF1α (prostacyclin); experiment: Urinary 2,3-dinor-6-keto-PGF1α (prostacyclin) excretion by GC/MS, basal and bradykinin-stimulated (Example 3)
Protocol: Each subject was prohibited from taking any aspirin for two weeks prior to being administered the randomly chosen drug daily for 1 week followed by a urine collection 24 hours after dosing. This protocol was repeated two additional times. […] Statistical analysis was done using Wilcoxon rank sum test for continuous variables and the Pearson test for categorical variables.

Interleukin-8 (IL-8) = experiment: Bradykinin-stimulated Interleukin-8 serum levels (Example 4)
Protocol: Subjects of Group 1 were randomly administered a placebo, 81 mg IR ASA and 162.5 mg IR ASA. Subjects of Group 2 were randomly administered a placebo, 81 mg ER ASA and 162.5 mg ER ASA (Durlaza®). Each subject was prohibited from taking any aspirin for two weeks prior to being administered the randomly chosen drug daily for 1 week followed by a urine collection 24 hours after dosing. This protocol was repeated two additional times. For each urine collection TxB2 and 2, 3-dinor-6-keto-PGF1α (“prostacyclin”) levels were measured using gas chromatography-mass spectrometry (“GC/MS”). Statistical analysis was done using Wilcoxon rank sum test for continuous variables and the Pearson test for categorical variables.
Interleukin-8 (“IL-8”) serum levels (and Interleukin-6 levels, not shown) were measured both prior to and after administration of 0, 81 or 162.5 mg of either IR ASA or ER ASA.

[5] = 81 mg IR, subjects compared with Visit 6 (sub-study)
[6] = HPT Group, Visit 5, 81 mg IR ASA

For `CC(=O)Oc1ccccc1C(=O)O` [IR ASA, acetylsalicylic acid], the “single dose inhibition of TxB2 production” value [1] was “maintained during a 24-hour period”, the “MultiPlate (AU) AA” value (platelet aggregation [2]; 81 mg IR QD, main study) was 17 ± 14 AU and the “MultiPlate (AU) ADP” value (platelet aggregation [2]; 81 mg IR QD, main study) was 70 ± 24 AU. For the same molecule, the “MultiPlate (AU) Collagen” value (platelet aggregation [2]; 81 mg IR QD, main study) was 36 ± 17 AU, the “MultiPlate (AU) AA” value (platelet aggregation [2]; [5]) was 24 ± 13 AU and the “MultiPlate (AU) ADP” value (platelet aggregation [2]; [5]) was 77 ± 15 AU. The “MultiPlate (AU) Collagen” value (platelet aggregation [2]; [5]) was 47 ± 18 AU, the “VerifyNow Aspirin Assay (ARU)” value (platelet aggregation [3]; 81 mg IR QD, main study) was 477 ± 72 ARU and the “VerifyNow Aspirin Assay (ARU)” value (platelet aggregation [3]; [5]) was 475 ± 102 ARU. The “Reactive Hyperemia Index, Maximum” value (endothelial function; [6]) was 2.27, the “Reactive Hyperemia Index, Mean” value (endothelial function; [6]) was 1.74 and the “Reactive Hyperemia Index, Minimum” value (endothelial function; [6]) was 1.23. The “Reactive Hyperemia Index, Mean” value (endothelial function; HPT Group, Visit 5, 81 mg IR ASA, listed as IR aspirin) was 1.7±0.5, the “RHI < 1.67 (%)” value (endothelial function; [6]) was “(44) %” and the “Reactive Hyperemia Index, Maximum” value (endothelial function; Visit 2, 81 mg IR ASA) was 3.01. The “Reactive Hyperemia Index, Mean” value (endothelial function; Visit 2, 81 mg IR ASA) was 1.94, the “Reactive Hyperemia Index, Minimum” value (endothelial function; Visit 2, 81 mg IR ASA) was 0.58 and the “Reactive Hyperemia Index, Mean” value (endothelial function; Visit 2, 81 mg IR ASA, listed as IR aspirin) was 1.9±0.5. For the same molecule, the “RHI < 1.67 (%)” value (endothelial function; Visit 2, 81 mg IR ASA) was “(27.5) %”, the “Bradykinin-stimulated prostacyclin levels over placebo” value ([4]; 81 mg) was “significantly reduced” and the “Basal prostacyclin levels over placebo” value ([4]; 81 mg daily for 1 week) was “significantly reduced”. For the same molecule, the “Bradykinin-stimulated prostacyclin levels over placebo” value ([4]; 162.5 mg) was “significantly reduced”, the “Basal prostacyclin levels over placebo” value ([4]; 162.5 mg daily for 1 week) was “significantly reduced” and the “Bradykinin-stimulated IL-8 levels” value (Interleukin-8 (IL-8); 81 mg) was “increased”. For the same molecule, the “Bradykinin-stimulated IL-8 levels” value (Interleukin-8 (IL-8); 162.5 mg) was “increased”.
